According to publication PMC4372538, “Advantages of the Phosphatidylserine-Recognizing Peptide PSP1 for Molecular Imaging of Tumor Apoptosis Compared with Annexin V” (PLoS ONE, 2015):
Entries after “also recorded” stand apart in the source; their conditions may differ. Where no end group is shown, it is not given here.

Key:
[1] = phage display; ref [17]; cited from earlier work
[2] = test system: apoptotic tumor cells in H460 tumor-bearing mice; assay: in vivo fluorescence imaging of tumors after apoptosis induction; set-up: species or system BALB/c nude mice; human H460 tumor; conditions: for in vivo tumor homing: i.v., camptothecin-treated H460 tumor-bearing mice, n = 5, imaging 10 min to 12 h, PSP1 10 μg/200 μl, annexin V and control peptide 100 μg/200 μl
Description: (§1) Female nude mice (BALB/c nude; body weight, 20±3 g; n = 5) were housed in a specific pathogen-free environment at 22±2°C and 55±5% relative humidity with light. Tumors were generated by subcutaneously injecting H460 cells (5×10^6 cells) into the right shoulder of 6-wk-old female BALB/c nude mice and allowing them to grow for 3 weeks (size of 0.5 to 0.7 cm). For in vivo analysis of tumor targeting, the tumor-bearing mice were either treated or not treated with a single dose of camptothecin (10 mg/kg) 24 hrs prior to intravenous injection of Cy7.5-labeled PSP1, Cy7.5-annexin V or Cy7.5-labeled control peptide into the tail vein under inhalational anesthesia (1% (w/v) isoflurane in 2 L oxygen).
In vivo fluorescence images were taken at different time intervals after peptide injection (10 min, 1 h, 3 h, 6 h, and 12 h) using an eXplore Optix system (ART Advanced Research Technologies Inc., Montreal, Canada), which has excitation/emission wavelengths of 778 nm/805 nm. The obtained images were processed using eXplore Optix OptiView Software and normalized based on the baseline fluorescence, assessed for each mouse prior to peptide injection.
Fig 4 In vivo imaging of tumors after apoptosis induction. (A) Cy7.5-labelled PSP1peptide, control peptide, or annexin V was systematically injected into the tail vein of tumor-bearing nude mice treated with camptothecin 24 hrs before injection. The same amount of annexin V was also injected into non-camptothecin-treated tumor-bearing mice as a control. The homing of the peptides was examined after the indicated times using an optical imaging system. The white dotted circles indicate the tumors. (B) Histological examination of tumor tissues after homing of PSP1 and annexin V, performed under a fluorescence microscope. Tumor cell apoptosis was observed by TUNEL staining.

[3] = test system: apoptotic cells in tumor tissue; assay: histological examination of tumor tissues after in vivo homing; set-up: species or system BALB/c nude mice; human H460 tumor; conditions: Cy7.5-labeled, i.v., tumors removed at 6 hr, camptothecin-treated mice
Description: At the 6 hr time point, the animals were euthanized with CO2, and tumor tissues were removed from a subset of animals. The tumor tissues were then fixed by incubating with 4% paraformaldehyde (PFA) overnight, followed by freezing for cryosectioning and immunohistochemical studies under a fluorescence microscope (Zeiss, Oberkochen, Germany). Apoptosis in the tumor tissues was assessed by […] terminal deoxynucleotidyl transferase-mediated dUTP nick-end labelling (TUNEL) staining in accordance with the manufacturer’s instructions (Chemicon Int., Temecula, CA, USA).  Fig 4 In vivo imaging of tumors after apoptosis induction. (A) Cy7.5-labelled PSP1peptide, control peptide, or annexin V was systematically injected into the tail vein of tumor-bearing nude mice treated with camptothecin 24 hrs before injection. The same amount of annexin V was also injected into non-camptothecin-treated tumor-bearing mice as a control. The homing of the peptides was examined after the indicated times using an optical imaging system. The white dotted circles indicate the tumors. (B) Histological examination of tumor tissues after homing of PSP1 and annexin V, performed under a fluorescence microscope. Tumor cell apoptosis was observed by TUNEL staining.

PS liposomes = assay: SPR binding to PS liposomes
From the text: To compare the kinetics of annexin V and PSP1 peptide binding to PS liposomes, SPR spectroscopy was employed (Reichert Inc, NY, USA). PC and PS liposomes (0.8:0.2 PC:PS) were generated as previously described and were homogenously purified using a liposome mini-extruder with a 100 nm membrane filter, based on the manufacturer’s protocol (Avanti Polar Lipids). […] Briefly, phytosphingosine was immobilized by activating the carboxymethyl groups on dextran-coated chips (Reichert Life Sciences) through a reaction with N-hydroxysuccinimide (Sigma-Aldrich), followed by covalent bonding of the ligands to the chip surface via amide linkages and blocking of excess activated carboxyls with ethanolamine. The purified PS or PC liposomes were captured on the phytosphingosine layer at a flow rate of 5 μl/min in liposome immobilization buffer (10 mM Tris-HCl (pH 8.0), 100 mM NaCl, and 2 mM CaCl2). To use the PC-immobilized surface as a control, the injected PS or PC liposome volume was adjusted to an immobilization level of approximately 4000±200 RU. Different concentrations of the PSP1 peptide (0.313 to 5 μM) and annexin V (3.13 to 100 nM) in running buffer (10 mM Tris-HCl (pH 8.0), 100 mM NaCl, 2 mM CaCl2, and 62.5 μg/ml BSA) were allowed to flow over the surfaces bound to the immobilized liposomes for 3 min at a rate of 30 μl/min. The sensor surface was regenerated after each association and dissociation cycle by injecting 10 mM EDTA for 20 s, followed by 50 mM NaOH for 10 s. The interaction of the ligand and the analyte was analyzed using Scrubber 2 Biologic software (http://www.biologic.com.au/). The binding kinetics was assessed by determining the association (kon), dissociation (koff), and equilibrium (KD) constants.
The in vitro binding affinity of PSP1 and annexin V for PS was further examined using SPR analysis (Fig. 2). […] We immobilized PS liposomes on the surface of an SPR chip, applied a series of different concentrations of PSP1 or annexin V, and examined the binding kinetics. PS-specific binding was determined by subtracting binding responses to a PC liposome-coated surface from those obtained using a PS liposome-coated […] surface.
Fig 2 In vitro SPR analysis of PSP1 and annexin V binding to PS liposomes. (A) The indicated concentrations of PSP1 were injected onto the liposome-immobilized surface. Responses (RU) from the PC liposome-coated surface (reference) were subtracted from those from the PS:PC (2:8) liposome surface to monitor PS-specific binding. The equilibration binding constant (KD) and the association (Kon) and dissociation (Koff) rate constants were estimated using the Scrubber program. (B) Plots of the RU values of annexin V at the indicated concentrations.

apoptotic H460 cells [4] = assay: confocal microscopy of binding to apoptotic H460 cells; assay type: cell-based, human; conditions: FITC-labeled, 20 μg/ml, apoptotic H460 (etoposide 50 μM), 4°C, 1 hr
untreated cancer cells = assay: binding to normal (untreated) cancer cells, microscopy; assay type: cell-based, human; conditions: 40 μg/ml; data not shown
Description: (A) Apoptotic H460 cells in a chamber slide were incubated with 20 μg of PSP1, control peptide, or annexin V for 30 min. The cells were washed and fixed with 4% PFA before staining with DAPI. The confocal images were taken by laser confocal microscopy. (B) Normal H460 cells were subjected to incubation with the same amount of peptide or annexin V.

apoptotic H460 cells [5] = assay: FACS binding to apoptotic H460 cells; assay type: cell-based, human; conditions: FITC-labeled; for binding of PSP1 mutants to apoptotic H460 cells (FACS): 10 μg/ml, vs PSP1, 4°C, n = 3
Description: (§2) The human lung cancer cell H460, which was obtained from the American Type Culture Collection (ATCC), was maintained in RPMI-1640 media supplemented with 10% heat-inactivated fetal bovine serum (FBS) and penicillin G/streptomycin at 37°C in a humidified atmosphere of 95% air and 5% CO2.
(§3) To induce apoptosis of lung tumor cells (H460), the cells (5×10^6 cell) were grown overnight and then treated with etoposide (50 μM) (Sigma) in serum-free media for 22 hrs, followed by washing with phosphate-buffered saline (PBS) and binding buffer (10 mM Hepes (pH 7.4), 150 mM NaCl, and 2 mM CaCl2).
(§4) Control peptide (grey); FITC-NSSSVDK.

H460 cells = assay: apoptosis induction in H460 cells, annexin V/PI staining; conditions: etoposide 50 μM
H460 tumors = assay: TUNEL staining of tumors; assay type: in vivo, BALB/c nude mice; human H460 tumor; conditions: camptothecin 10 mg/kg single dose
Description: as §1
At the 6 hr time point, the animals were euthanized with CO2, and tumor tissues were removed from a subset of animals. The tumor tissues were then fixed by incubating with 4% paraformaldehyde (PFA) overnight, followed by freezing for cryosectioning and immunohistochemical studies under a fluorescence microscope (Zeiss, Oberkochen, Germany). Apoptosis in the tumor tissues was assessed by […] terminal deoxynucleotidyl transferase-mediated dUTP nick-end labelling (TUNEL) staining in accordance with the manufacturer’s instructions (Chemicon Int., Temecula, CA, USA).

normal H460 cells = assay: FACS binding to normal H460 cells; assay type: cell-based, human; conditions: FITC-labeled, 10 μg/ml; n = 3
Description: as §2, §3, §4

[6] = PS:PC (2:8) liposomes, PC response subtracted, Tris-HCl pH 8.0, 2 mM CaCl2, Scrubber, value from picture

## CLSYYPSYC [PSP1, peptide-based phosphatidylserine (PS) indicator PSP1 (…)]
[1]
  interaction with PS on apoptotic cells: specific interaction with PS on apoptotic cells
[2]; Cy7.5-labeled, i.v. tail vein, camptothecin 10 mg/kg 24 hrs before, PSP1 10 μg/200 μl (23.16 μM), annexin V 100 μg/200 μl (14.3 μM)
  duration of in vivo fluorescence signal in tumor region: more than 12 hrs
[2]; Cy7.5-labeled
  in vivo tumor homing: generated apoptosis/tumor-specific signals after cancer treatment in the animal model; also recorded: appeared higher than those of annexin V for the entire measurement period; also recorded: rapidly observed in the tumor region; also recorded: specifically homed to apoptotic cells in tumors after cancer therapy; also recorded: specifically targeted apoptotic cells in tumors following systemic administration
[3]
  tumor-homing fluorescence signal in tumor cryosections: significantly more prominent than that of annexin V
PS liposomes; PS liposomes, PC liposome response subtracted, Tris-HCl pH 8.0, 2 mM CaCl2, read-out: in vitro binding affinity (equilibrium binding constant, KD)
  Kd: 10.7 µM
PS liposomes; PS liposomes, real-time association and dissociation
  PS binding kinetics in words: binds much more slowly to PS but, once bound, forms a more stable complex (slow dissociation) compared with annexin V; also recorded: dissociation of PSP1 was slow, even slower than that of annexin V
PS liposomes; [6]
  association rate constant (Kon): 5.05±3.00×10^1 M^-1S^-1
  dissociation rate constant (Koff): 2.87±0.95×10^-4 S^-1
Apoptotic H460 cells [4]
  apoptotic cell-specific signal (confocal microscopy): apoptotic cell-specific signals were clearly detected; also recorded: targets apoptotic tumor cells more efficiently than annexin V does
Untreated cancer cells
  binding to untreated cancer cells: a small degree of binding to untreated cancer cells
Apoptotic H460 cells [5]; etoposide 50 μM 22 hrs, 2, 10, 20, 50 μg/ml, binding buffer 10 mM Hepes pH 7.4, 150 mM NaCl ± 2 mM CaCl2, 4°C, 1 hr
  binding to apoptotic H460 cells (FACS): specifically bound to apoptotic H460 cells in a concentration-dependent manner; also recorded: specifically binds to apoptotic cells through PS exposed on the apoptotic cell surface

## NSSSVDK (also: FITC label, position not given here) [control peptide, control peptide (NSSSVDK), reference compound]
[2]; Cy7.5-labeled control peptide 100 μg/200 μl i.v., camptothecin-treated tumor-bearing mice
  non-specific fluorescence in surrounding non-tumor tissues: surrounding non-tumor tissues absorbed fluorescence at the early time points, this non-specific signal vanished over time
[2]; Cy7.5-labeled
  in vivo tumor homing: did not show specific tumor-homing signals
[3]
  tumor-homing fluorescence signal in tumor cryosections: No signals were observed in tumor tissues

## COc1cc([C@@H]2c3cc4c(cc3[C@@H](O[C@@H]3O[C@@H]5CO[C@@H](C)O[C@H]5[C@H](O)[C@H]3O)[C@H]3COC(=O)[C@H]23)OCO4)cc(OC)c1O [etoposide]
H460 cells
  effect of etoposide on H460 cells in words: without evidence of significant necrosis; also recorded: caused PS exposure; also recorded: did not significantly change the cell shape or number
H460 cells; 22 hrs, serum-free media, annexin V/PI FACS
  H460 cells undergoing apoptosis: more than 50%

## CC[C@@]1(O)C(=O)OCc2c1cc1n(c2=O)Cc2cc3ccccc3nc2-1 [camptothecin]
H460 tumors
  in vivo apoptosis in tumors (TUNEL): increased area of in vivo apoptosis

## CLSAAPSYC [AA-PSP1, mutant PSP1 peptide with alanine instead of tyrosine, …]
Apoptotic H460 cells [5]
  binding of PSP1 mutants to apoptotic H460 cells (FACS): significantly diminished by replacement of tyrosine by alanine

## CLSFFPSYC [FF-PSP1, mutant PSP1 peptide with phenylalanine instead of tyrosine, …]
Normal H460 cells
  binding to normal H460 cells (FACS): nonspecific binding to the normal cells
Apoptotic H460 cells [5]
  binding of PSP1 mutants to apoptotic H460 cells (FACS): bound to the apoptotic cells as much as PSP1
